Experimental findings from US20260000676A1, “CHROMAN DERIVATIVES AS ESTROGEN RECEPTOR DEGRADERS” (THE REGENTS OF THE UNIVERSITY OF MICHIGAN, priority 2022, published 2026) are described below.

Each structure is given as a SMILES string.

Test [1] deals with T1, ER (Homo sapiens (Human), UniProt P03372). The experiment in a line: In-cell western (ICW) ER degradation assay in T47D cells. The test is classed as cell-based. To be noted: 16 hrs; for DC50: ER degradation; for Dmax / T47D Dmax %: maximal ER degradation.
T1 sequence (P03372 whole entry): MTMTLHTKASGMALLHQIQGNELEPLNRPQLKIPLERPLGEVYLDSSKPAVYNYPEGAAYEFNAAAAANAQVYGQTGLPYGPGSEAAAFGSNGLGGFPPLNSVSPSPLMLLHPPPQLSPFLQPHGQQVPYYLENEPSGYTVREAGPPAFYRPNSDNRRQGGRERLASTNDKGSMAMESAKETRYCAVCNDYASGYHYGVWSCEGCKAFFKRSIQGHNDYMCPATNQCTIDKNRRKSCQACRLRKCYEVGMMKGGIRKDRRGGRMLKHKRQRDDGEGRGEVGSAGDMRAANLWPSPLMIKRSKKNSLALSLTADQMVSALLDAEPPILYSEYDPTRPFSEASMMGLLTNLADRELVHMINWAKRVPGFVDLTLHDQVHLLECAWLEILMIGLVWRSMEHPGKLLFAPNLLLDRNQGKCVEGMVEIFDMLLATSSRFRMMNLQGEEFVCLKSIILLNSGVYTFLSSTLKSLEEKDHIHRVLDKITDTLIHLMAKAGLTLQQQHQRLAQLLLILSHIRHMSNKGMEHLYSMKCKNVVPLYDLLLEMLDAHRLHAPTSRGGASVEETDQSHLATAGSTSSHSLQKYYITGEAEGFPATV
The target in test [2] is T1, ER. Put plainly: In-cell western (ICW) ER degradation assay in MCF-7 cells. The format is cell-based. To be noted: MCF7, 16 hrs; for DC50: ER degradation; for Dmax: MCF7, maximal ER degradation; for MCF7 Dmax %: maximal ER degradation.
A further test concerns the target ERα_LBD(GST) (Homo sapiens (Human), UniProt P03372). The experiment in a line: LanthaScreen TR-FRET ERα competitive binding assay. The note with it: read-out: ERα HTRF IC50. On the procedure: • 1. ERα_LBD(GST) protein: 4 nM • 2. Tb Anti-GST: 2 nM • 3. Fluormone ES2 Green tracer: 3 nM • 4. Incubation time: 60 min • 5. DMSO: 1% • 6. Assay buffer: Adding 1M DTT to Nuclear receptor Buffer K for final 5 mM DTT. • 7. ZPE: 1% DMSO • 8. HPE: 1 μM ARV_471 • 9. LanthaScreen® TR-FRET ERα Competitive Binding Assay (ThermoFisher, #A15887)
• 1) Cherry pick 2 μL 10 mM compound stock to column 1 of a 384 intermediate plate • 2) Add 18 μL DMSO to column 1 to dilute compound to 1 mM. • 3) Transfer 10 μL 1 mM compound to column 1 of a LDV plate. • 2) Add 6 μl DMSO to column 2-10 of the LDV plate. • 3) Compounds undergo 3-fold serial dilution (3 μL+6 μL) in DMSO. • 4) Transfer 120 nL compound solution to assay plate. • ZPE: 120 nL 100% DMSO
Prepare complete nuclear receptor buffer K by adding 1 M DTT to nuclear receptor buffer K for a final concentration of 5 mM DTT. Complete nuclear receptor buffer K must be prepared fresh daily. Prepare 2× protein solution using complete nuclear receptor buffer K containing 8 nM ERα_LBD(GST) and 4 nM Tb Anti-GST. Then, prepare 2× Fluormone ES2 Green tracer (6 nM) using complete nuclear receptor buffer K. Add 6 μL 2× Fluormone ES2 green tracer into a compound plate (PerkinElmer 6008289) by dragonfly with one-tips-addition. Subsequently, add 6 μL 2× protein solution into the plate. Briefly and gently mix the 384-well plate on a plate shaker and incubate at room temperature protected from light for 60 min. The plate is sealed with a cover to minimize evaporation. Read the plate at wavelengths of 520 nm and 495 nm. Calculate the TR-FRET ratio by dividing the emission signal at 520 nm by the emission signal at 495 nm. Generate a binding curve by plotting the emission ratio vs. the log [ligand]. To determine the IC50 value, fit the data using XL-fit for a sigmoidal dose-response.

In a further test the target is CRBN/DDB1 (Homo sapiens (Human), UniProt Q96SW2). Put plainly: HTRF binding assay to CRBN/DDB1. The note with it: read-out: CRBN HTRF IC50. On the procedure: The binding potency was determined using HTRF assay technology (Perkin Elmer). Compounds were serially diluted in DMSO and 0.2 μL volume was transferred to white 384-well plate.
Sequence of CRBN/DDB1 (Q96SW2 whole entry): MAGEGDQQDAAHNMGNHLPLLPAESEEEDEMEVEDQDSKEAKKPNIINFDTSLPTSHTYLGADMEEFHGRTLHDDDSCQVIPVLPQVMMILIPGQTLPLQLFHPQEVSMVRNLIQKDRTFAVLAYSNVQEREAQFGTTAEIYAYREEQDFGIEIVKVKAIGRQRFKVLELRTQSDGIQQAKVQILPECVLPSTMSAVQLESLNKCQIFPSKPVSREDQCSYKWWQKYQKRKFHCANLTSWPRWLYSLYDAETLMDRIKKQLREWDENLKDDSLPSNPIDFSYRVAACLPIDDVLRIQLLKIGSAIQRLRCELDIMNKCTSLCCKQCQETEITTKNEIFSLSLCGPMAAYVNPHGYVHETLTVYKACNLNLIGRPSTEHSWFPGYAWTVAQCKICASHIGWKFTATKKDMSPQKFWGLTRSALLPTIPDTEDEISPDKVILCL
Sequence of CRBN/DDB1 (Q16531 whole entry partner): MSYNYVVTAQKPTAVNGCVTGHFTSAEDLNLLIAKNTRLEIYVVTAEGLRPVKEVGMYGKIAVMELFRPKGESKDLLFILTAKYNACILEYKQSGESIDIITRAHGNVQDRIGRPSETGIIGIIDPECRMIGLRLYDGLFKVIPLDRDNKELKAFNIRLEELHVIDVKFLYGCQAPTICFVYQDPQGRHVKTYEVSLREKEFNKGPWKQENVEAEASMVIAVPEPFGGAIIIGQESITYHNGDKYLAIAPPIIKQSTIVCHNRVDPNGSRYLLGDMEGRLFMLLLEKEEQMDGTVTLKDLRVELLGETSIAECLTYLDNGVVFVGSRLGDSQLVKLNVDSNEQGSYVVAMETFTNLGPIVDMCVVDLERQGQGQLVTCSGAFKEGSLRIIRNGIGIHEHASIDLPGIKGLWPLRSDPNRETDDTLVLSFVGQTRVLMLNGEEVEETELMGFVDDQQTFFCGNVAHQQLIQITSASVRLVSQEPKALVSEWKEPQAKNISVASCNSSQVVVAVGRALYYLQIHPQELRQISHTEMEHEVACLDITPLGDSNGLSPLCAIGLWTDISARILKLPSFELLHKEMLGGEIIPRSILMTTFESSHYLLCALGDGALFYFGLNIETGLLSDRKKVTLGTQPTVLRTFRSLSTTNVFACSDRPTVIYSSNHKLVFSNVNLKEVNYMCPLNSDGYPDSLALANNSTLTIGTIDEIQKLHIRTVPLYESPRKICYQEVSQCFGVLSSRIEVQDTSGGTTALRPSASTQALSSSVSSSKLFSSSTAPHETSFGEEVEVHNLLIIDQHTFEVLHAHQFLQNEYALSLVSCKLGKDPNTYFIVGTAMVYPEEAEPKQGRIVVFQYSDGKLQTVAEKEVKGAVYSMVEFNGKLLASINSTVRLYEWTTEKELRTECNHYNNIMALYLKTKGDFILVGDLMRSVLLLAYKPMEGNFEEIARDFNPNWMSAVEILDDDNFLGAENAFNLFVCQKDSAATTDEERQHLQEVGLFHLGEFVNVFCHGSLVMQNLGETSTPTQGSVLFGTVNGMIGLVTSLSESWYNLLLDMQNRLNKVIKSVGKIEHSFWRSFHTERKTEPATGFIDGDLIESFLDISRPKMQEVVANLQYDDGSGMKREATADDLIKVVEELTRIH
A general note: TR-FRET usually uses a lanthanide donor and a delayed reading to cut background.

Sequence of ERα_LBD(GST) (P03372 311-547): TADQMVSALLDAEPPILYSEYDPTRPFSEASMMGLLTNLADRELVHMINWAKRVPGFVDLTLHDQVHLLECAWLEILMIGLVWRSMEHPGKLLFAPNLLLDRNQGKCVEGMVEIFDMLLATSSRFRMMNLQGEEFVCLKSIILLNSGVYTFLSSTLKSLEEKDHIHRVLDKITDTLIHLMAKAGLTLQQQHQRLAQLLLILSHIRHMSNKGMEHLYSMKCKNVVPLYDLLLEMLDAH

At ER [1], `COc1cc(N2CCC(CN3CCN4c5cc6c(cc5OC[C@H]4C3)C(=O)N([C@@H]3CCC(=O)NC3=O)C6)CC2)ccc1[C@H]1c2ccc(O)cc2OC[C@H]1c1ccccc1` (single isomer, unassigned) [Compound A122] came in with a DC50 of less than 1 nM and a Dmax of no less than 75%. On ER [2], this compound displayed a DC50 of less than 1 nM and a Dmax of no less than 75%. The IC50 on ERα_LBD(GST) is less than 5 nM.

Take `O=C1CCC(N2Cc3cc(N4CCN(CC5CC6(CCN(c7ccc([C@@H]8c9ccc(O)cc9OC[C@@H]8c8ccccc8)cn7)CC6)C5)CC4)ccc3C2=O)C(=O)N1` (single isomer, unassigned) [Compound A68]: on ER [1], the DC50 lay in the range of 1 to 10 nM and the “T47D Dmax %” value was “A (“A”; >=75%)”. On ER [2], the DC50 was in the range of 1 to 10 nM; the “MCF7 Dmax %” value was “B (“B”: >50% and <75%)”. The IC50 on ERα_LBD(GST) is less than 5 nM.

`COc1cc(N2CCC(CN3CCN4c5cc6c(cc5OC[C@H]4C3)C(=O)N(C3CCC(=O)NC3=O)C6)CC2)ccc1[C@@H]1c2ccc(O)cc2OC[C@@H]1c1ccccc1` (single isomer, unassigned) [Compound A84]: the Dmax on ER [1] and at ER [2] was 50 to 75% in each case. The IC50 on ERα_LBD(GST) was less than 5 nM.

With `O=C1CC[C@@H](N2Cc3cc4c(cc3C2=O)OCC42CCN(CC3CCC4(CC3)CN(c3ccc([C@H]5c6ccc(O)cc6OC[C@H]5c5ccccc5)cc3)C4)CC2)C(=O)N1` [Compound A153, (R)-3-(1′-((2-(4-((3R,4S)-7-hydroxy-3-phenylchroman-4-yl)phenyl)-2-azaspiro[3.5]nonan-7-yl)methyl)-7-oxo-5,7-dihydro-2H,6H-spiro[furo[2,3-f]isoindole-3,4′-piperidin]-6-yl)piperidine-2,6-dione], at ER [1], the DC50 is less than 1 nM and the Dmax was no less than 75%. At ER [2], this compound returned a DC50 of less than 1 nM and a Dmax of 50 to 75%. Also, the IC50 at ERα_LBD(GST) was less than 5 nM.

Consider `COc1cc(N2CCC(CN3CCN4c5ccc6c(c5OC[C@@H]4C3)CN([C@@H]3CCC(=O)NC3=O)C6=O)CC2)ccc1[C@H]1c2ccc(O)cc2OC[C@H]1c1ccccc1` (single isomer, unassigned) [Compound A121], for which the Dmax on ER [1] and on ER [2] was no less than 75% each time. Also, the IC50 on ERα_LBD(GST) is less than 5 nM.

On ER [2], `O=C1CCC(N2Cc3cc4c(cc3C2=O)OC[C@@H]2CN(CC3CC5(CCN(c6ccc([C@H]7c8ccc(O)cc8OC[C@H]7c7ccccc7)cc6)CC5)C3)CCN42)C(=O)N1` (single isomer, unassigned) [Compound A27] returned a Dmax of 50 to 75%. The IC50 on ERα_LBD(GST) is less than 5 nM.

Regarding `O=C1CCC(N2C(=O)c3cc4c(cc3C2=O)CN(CC(=O)N2CCC3(CC2)CCN(c2ccc([C@H]5c6ccc(O)cc6OC[C@H]5c5ccccc5)cc2)CC3)C4)C(=O)N1` (stereo partly drawn) [Compound A40, 2-(2,6-dioxopiperidin-3-yl)-6-(2-(9-(4-((3R,4S)-7-hydroxy-3-phenylchroman-4-yl)phenyl)-3,9-diazaspiro[5.5]undecan-3-yl)-2-oxoethyl)-6,7-dihydropyrrolo[3,4-f]isoindole-1,3(2H,5H)-dione], on ER [1], the DC50 was less than 1 nM and the Dmax lay in the range of 50 to 75%. In addition, on ER [2], the DC50 is 1 to 10 nM and the Dmax lay in the range of 50 to 75%. Besides, the IC50 on ERα_LBD(GST) is no less than 5 nM.

Compound `O=C1CCC(N2Cc3c(ccc4c3OC[C@H]3CN(CC5CCN(c6ccc([C@@H]7c8ccc(O)cc8OC[C@@H]7c7ccccc7)cc6F)CC5)CCN43)C2=O)C(=O)N1` (single isomer, unassigned) [Compound A9, 3-((R)-7-((1-(2-fluoro-4-((3S,4R)-7-hydroxy-3-phenylchroman-4-yl)phenyl)piperidin-4-yl)methyl)-1-oxo-1,3,5,5a,6,7,8,9-octahydro-2H-pyrazino[1′,2′:4,5][1,4]oxazino[2,3-e]isoindol-2-yl)piperidine-2,6-dione] came in with a Dmax on ER [2] of 50 to 75%. The IC50 at ERα_LBD(GST) is less than 5 nM.

On to `O=C1CCC(N2Cc3c(ccc4c3OC[C@@H]3CN(CC5CC6(CCN(c7ccc([C@H]8c9ccc(O)cc9OC[C@H]8c8ccccc8)cc7)CC6)C5)CCN43)C2=O)C(=O)N1` (single isomer, unassigned) [Compound A21], for which, on ERα_LBD(GST), the IC50 is less than 5 nM.

At ER [2], `O=C1CCC(N2Cc3c(ccc4c3OC[C@H]3CN(CC5CCN(c6ccc([C@@H]7c8ccc(O)cc8OC[C@@H]7c7ccccc7)cc6)CC5)CCN43)C2=O)C(=O)N1` (single isomer, unassigned) [Compound A8, 3-((R)-7-((1-(4-((3S,4R)-7-hydroxy-3-phenylchroman-4-yl)phenyl)piperidin-4-yl)methyl)-1-oxo-1,3,5,5a,6,7,8,9-octahydro-2H-pyrazino[1′,2′:4,5][1,4]oxazino[2,3-e]isoindol-2-yl)piperidine-2,6-dione] came in with a Dmax of 50 to 75%. Further, on ERα_LBD(GST), the IC50 is less than 5 nM.

`O=C1CCC(Nc2ccc(C34CCN(CC5COC6(CCN(c7ccc([C@H]8c9ccc(O)cc9OC[C@H]8c8ccccc8)cc7F)CC6)C5)CC3C4(F)F)cc2)C(=O)N1` (stereo partly drawn) [Compound A156, 3-((4-(7,7-difluoro-3-(((R)-8-(2-fluoro-4-((3R,4S)-7-hydroxy-3-phenylchroman-4-yl)phenyl)-1-oxa-8-azaspiro[4.5]decan-3-yl)methyl)-3-azabicyclo[4.1.0]heptan-6-yl)phenyl)amino)piperidine-2,6-dione]: the DC50 is less than 1 nM at ER [1] and greater than 100 nM at ER [2]. For the same compound, the Dmax at ER [1] was 25 to 50%; at ER [2], less than 25%. Further, the IC50 at CRBN/DDB1 was in the range of 500 to 5000 nM.

On ER [1], `O=C1CCC(NC(=O)c2ccc(N3CCC(CN4CCN(c5ccc([C@H]6c7ccc(O)cc7OC[C@H]6c6ccccc6)cc5)CC4)CC3)cn2)C(=O)N1` (single isomer, unassigned) [Compound A128] had a DC50 of less than 1 nM and a Dmax of 50 to 75%. Besides, the IC50 at CRBN/DDB1 is greater than 5000 nM. For the same compound, at ER [2], the DC50 was less than 1 nM; the “MCF7 Dmax %” value was “B (“B”: >50% and <75%)”.

In the case of `COc1cc(N2CCC(CN3CCN(c4ccc(C(=O)NC5CCC(=O)NC5=O)nc4)CC3)CC2)ccc1[C@H]1c2ccc(O)cc2OC[C@H]1c1ccccc1` (single isomer, unassigned) [Compound A124], on ER [1], the DC50 is less than 1 nM and the Dmax fell in the range of 50 to 75%. At CRBN/DDB1, the half-maximal inhibitory concentration (IC50) was greater than 5000 nM. On ER [2], this compound had a DC50 of less than 1 nM and a Dmax of 50 to 75%.

As for `Cn1c(=O)n(C2CCC(=O)NC2=O)c2ccc(C3CCN(CC4CC5(CCN(c6ccc([C@@H]7c8ccc(O)cc8OC[C@@H]7c7ccccc7)cc6)CC5)C4)CC3)cc21` (single isomer, unassigned) [Compound A73], the DC50 on ER [1] and at ER [2] was less than 1 nM throughout. Also, the Dmax on ER [1] and on ER [2] was 50 to 75% each time. Moreover, the IC50 on CRBN/DDB1 is less than 50 nM.

On ER [1], `O=C1CC[C@@H](NC(=O)c2ccc(N3CCC(CN4CC5(CCN(c6ccc([C@H]7c8ccc(O)cc8OC[C@H]7c7ccccc7)cc6)CC5)C4)CC3)cn2)C(=O)N1` (single isomer, unassigned) [Compound A111] yielded a DC50 of less than 1 nM and a maximal degradation (Dmax) of 50 to 75%. The IC50 on CRBN/DDB1 was in the range of 500 to 5000 nM. At ER [2], this compound registered a DC50 of less than 1 nM and a Dmax of 50 to 75%.

Take `O=C1CCC(NC(=O)c2ccc(N3CCN(CC4CCN(c5ccc([C@H]6c7ccc(O)cc7OC[C@H]6c6ccccc6)cc5F)CC4)CC3)cn2)C(=O)N1` (single isomer, unassigned) [Compound A100]: at ER [1], the DC50 was in the range of 1 to 10 nM and the Dmax was in the range of 50 to 75%. Besides, the IC50 at CRBN/DDB1 is greater than 5000 nM. At ER [2], this compound gave a DC50 of 1 to 10 nM and a Dmax of 50 to 75%.

`O=C1CCC(N2Cc3c(ccc4c3OC[C@H]3CN(CC5CC6(CCN(c7ccc([C@@H]8c9ccc(O)cc9OC[C@@H]8c8ccccc8)cn7)CC6)C5)CCN43)C2=O)C(=O)N1` (single isomer, unassigned) [Compound A65]: on ER [1], the DC50 was in the range of 1 to 10 nM and the “T47D Dmax %” value is “C (“C”: 25%-50%)”. Further, the IC50 at CRBN/DDB1 lay in the range of 50 to 500 nM. Moreover, at ER [2], the DC50 was in the range of 1 to 10 nM and the “MCF7 Dmax %” value is reported as “D (“D”; <25%)”.

A word on the DC50: it is the concentration giving 50% degradation. Lower therefore signals a more potent degrader. Usually Dmax stands for the largest share of the target that was removed. In general, IC50 refers to the concentration that gives 50% inhibition.
